This is an account of results in patent publication US20100016394A1, “BIOCIDAL COMPOSITIONS” (priority 2008, published 2010).

The subject of series [1] is mold. Put plainly: Modified ASTM-G21 mold resistant test on fungicide-infused Kraft paper. The conditions noted are these: single active infused in Kraft paper; pass = mold resistant rating of 0 or 1; Trichoderma virens omitted from spore inocula. It counts as cell-based. The method, then: In this example unbleached Kraft paper (brown wrapping paper (density 0.0091 g/cm2) is infused with DIMTS, carbendazim (BCM) and chlorothalonil (CTL) over a broad concentration range. In addition, paired combinations as well as all 3 actives combined are also infused into Kraft paper samples. Infusion of fungicide into paper is conducted by first dissolving the technical actives in a volatile solvent followed by addition of 1 mL of a working stock solution onto the surface of the paper to give the appropriate concentration of active(s) in mg/kg paper. The solvent completely saturates the paper. In order to prevent solvent from leaching through paper onto container, the paper is supported with a Viton O-ring. The solvent saturated paper samples are allowed to dry in a chemical fume hood precipitating the fungicides within the paper. Chemical analyses of fungicide actives in the paper samples confirms that this infusion technique produces >90% incorporation efficiency based on target concentrations. Standard mold resistant tests are performed on duplicate sub samples from each paper infusion sample. A modified ASTM-G21 is the standard mold resistant test used for performance evaluation. Synergy indices are calculated for all combinations of actives using a mold resistant rating of 0 or 1 as the passing criteria for performance. Synergy calculations are made according to the following standard equation:
SI=(Ca/CA)+(Cb/CB) 2 combination tests
SI=(Ca/CA)+(Cb/CB)+(Cc/CC) 3 combination tests
Ca is the lowest concentration of component A in combination with other active(s) required to pass test criteria;
CA is the lowest concentration of component A alone required to pass test criteria;
Cb is the lowest concentration of component B in combination with other active(s) required to pass test criteria;
CB is the lowest concentration of component B alone required to pass test criteria;
Cc is the lowest concentration of component C in combination with other active(s) required to pass test criteria; and
CC is the lowest concentration of component C alone required to pass test criteria. […]

The conditions of series [2]: cited from earlier work.

The structures appear in SMILES notation. Marks after values point to notes of the source that are not given here. A value given as a limit tells only on which side of the number the result lay.

`COC(=O)Nc1nc2ccccc2[nH]1` [BCM, methyl 2-benzimidazolecarbamate]: the “PPM (active), lowest concentration of component alone required to pass test criteria” value (“PPM (active), lowest concentration” below) in series [1] is listed as 1200 PPM.
For the compound `N#Cc1c(Cl)c(Cl)c(Cl)c(C#N)c1Cl` [CTL, 1,3-dicyano-tetrachlorobenzene], the “PPM (active), lowest concentration” value in series [1] is reported as > 1000* PPM.
Regarding `Cc1ccc(S(=O)(=O)C(I)I)cc1` [DIMTS, diiodomethyltolylsulfone], the “PPM (active), lowest concentration” value in series [1] came out at 4000 PPM. The Water solubility entry in series [2] is listed as “water insoluble”.
